From US12280138B2, “Dedifferentiated cell extract of Bletilla and method for whitening, anti-oxidation and anti-wrinkling applying the same, and cosmetic comprising the same” (CHLITINA INTELLIGENCE LIMITED, priority 2021, dated 2025)

How the values were obtained:
zebrafish embryos = test: Whitening efficacy in zebrafish experiment (melanin plaques); assay type: in vivo; conditions: 10 mM (about 1421 μg/ml)
Protocol: The wild-type zebrafish were stimulated to spawn, and the eggs spawned within one hour were collected. Upon 9 hours after fertilization, the embryos were screened by microscope to confirm the developmental state after fertilization. Each group had 12 fish embryos. The E3 culture medium, which was the zebrafish embryo culture medium, served as the control group. The positive control group was added with kojic acid (Kojic acid). Each experimental group was added with Example 1, Comparative example 1 and Comparative example 2, respectively. As zebrafish embryos produced melanin within 24 hours after fertilization, the treatment finished before the production of melanin, and the melanin production state in the hatched fish was observed upon 72 hours after fertilization. First, the fish was anesthetized and placed on a flat surface. The photo was taken from a top view, and the melanin plaques were analyze by the software of ImageJ. The intensity of the melanin plaque in the control group served as the standard, that is, the melanin amount thereof was 100%. The relative melanin amounts of the rest of the groups were calculated.

melanosis = conditions: 1% kojic acid applied to male and female subjects; cited from earlier work

O=c1cc(CO)occ1O [kojic acid]
Inhibition rate of melanin production (zebrafish embryos): about 55% | melanosis (melanosis): significantly inhibited
